Values quoted from earlier work in patent US20100113603A1, “COMBINATION THERAPIES FOR THE TREATMENT OF OBESITY” (priority 2008, published 2010).

Conditions: literature studies of each medication

| Compound | weight loss of body weight for drug compared with placebo |
| --- | --- |
| CCN[C@@H](C)Cc1cccc(C(F)(F)F)c1 [dexfenfluramine] | about 5% |
| CCCCCCCCCCC[C@@H](C[C@@H]1OC(=O)[C@H]1CCCCCC)OC(=O)[C@H](CC(C)C)NC=O [orlistat] | about 5% |
| CC(C)(N)Cc1ccccc1 [phentermine] | about 5% |
| CC(C)CC(N(C)C)C1(c2ccc(Cl)cc2)CCC1 (stereo not shown) [sibutramine] | about 5% |
